Test results taken from paper PMC8000840, “Novel IMB16-4 Compound Loaded into Silica Nanoparticles Exhibits Enhanced Oral Bioavailability and Increased Anti-Liver Fibrosis In Vitro” (Molecules, 2021).
Values after ≈ are worked out from the molar mass of the structure shown.

What was measured:
[1] = Equilibrium concentration (solubility) study in water; format: physicochemical; conditions: distilled water; raw IMB16-4 in water, 25 ± 2 °C, equilibrium about 24 h
Protocol: An excess amount of raw IMB16-4 was added into 5 mL of distilled water at 25 ± 2 °C. The raw IMB16-4 solution at equilibrium time (about 24 h) was withdrawn and filtered using a 0.22 μm membrane. The subsequent filtrate was diluted with internal standard (4′-Chloroacetanilide) acetonitrile solution and analyzed by HPLC-MS/MS analysis (Thermo LTQ XL, USA). The standard curve for IMB16-4 was the linear (R^2 > 0.992) over the concentration range of 0.3~1200.0 ng/mL. The quantitative ion pair of IMB16-4 and internal standard quantitative were m/z = 499.9/196.0 and m/z = 168.04/126.1, respectively.

[2] = In vitro dissolution, USP II paddle method; format: physicochemical; conditions: release medium, 12 h, 37 °C, 3% SDS
Protocol: Dissolution studies were conducted using a USP II paddle method (100 rpm, 37 °C, and 900 mL dissolution medium) with a dissolution tester (ZRS-8LD, China). The release of IMB16-4 and IMB16-4-MSNs was performed in pH 1.0 hydrochloric acid solution and pH 6.8 phosphate buffer solutions, containing 3% (w/v) SDS, respectively. All release studies were carried out in triplicate. At predetermined time intervals, 5 mL of sample solution was withdrawn from the release medium and filtered using a 0.22 μm membrane filter before running the HPLC analysis. An equivalent amount of fresh medium was added to maintain a constant dissolution volume.

[3] = system: α-SMA, TGF-β1 and MMP2 protein levels in LX-2 cells; assay: In vitro antifibrotic effects, Western blot of hepatic fibrogenic markers after TGFβ1 stimulation; format: cell-based, human; conditions: IMB16-4 2 µM, TGFβ1 2 ng/mL, 24 h
Protocol: After ultraviolet sterilization, raw IMB16-4, IMB16-4-MSNs and MSNs were suspended in water, respectively. Another group of raw IMB16-4 was suspended in DMSO. The concentration of IMB16-4 was 2 mM. Then, 2µL of solution containing IMB16-4 was added into 2 mL of serum-free culture with TGFβ1. LX-2 cells were cultured as described above. LX-2 cells were seeded in a 6-well plate, cultured in DMEM/GlutaMAX I, containing 10% fetal bovine serum (FBS) in 5% CO2 atmosphere at 37 °C. Serum-free culture was replaced until the cells reached 90 ≈ 95% confluence. After 24 h, cells were treated with TGFβ1 (2 ng/mL) and IMB16-4 (2 µM) for 24 h. Then, cells were washed with phosphate buffer saline (PBS) and protein was extracted in radio-immunoprecipitation assay (RIPA) buffer. Then mixture was centrifuged at 12,000 rpm at 4 °C for 20 min. The supernatant was collected, and the total protein was determined using the bicinchoninic acid (BCA) protein assay kit (Beyotime Biotechnology, China). Samples were applied to the 10% SDS-PAGE gel. Then, the protein bands were transferred to a polyvinylidene difluoride (PVDF) membrane (Millipore Corp, Atlanta, GA, USA) and the membrane was blocked for 1 h with 5% nonfat milk. […] The protein bands were analyzed on an imager (Tanon5200, China).

[4] = Oral pharmacokinetics study; format: in vivo, Sprague–Dawley (SD) rats; conditions: SD rats, oral gavage 100 mg/kg
Protocol: The mice were maintained under a specific pathogen-free (SPF) environment with a 12 h light/dark cycle. SD rats (body weight 200 ± 20 g) were fasted overnight and divided into two groups. Raw IMB16-4 and IMB16-4-MSNs were given orally by gavages at a dose of 100 mg/kg, respectively. Before administering, both IMB16-4-MSNs and raw IMB16-4 were dispersed in 0.5% CMC-Na aqueous solution, respectively. Blood samples were collected from the eye socket vein at time points of 0.17, 0.5, 1, 2, 3, 4, 6, 8 and 12 h after dosing. Plasma samples were collected by centrifuging at 3000 rpm for 10 min and were then stored at −20 °C until analysis. Plasma samples were mixed with internal standard (4′-Chloroacetanilide) acetonitrile solution. Then, the mixture was vortex-mixed for 10 s. After centrifugation at 15,000 rpm for 10 min, the supernatant was used for HPLC-MS/MS analysis (AB SCIEX 6500 Qtrap, USA). The condition of the capillary voltage was −4500 V. The temperature was 500 °C. The mobile phase comprised acetonitrile and 10 mM of ammonium acetate aqueous solution. Analysis was carried out on an Xselect HSS T3 column (2.1 × 100 mm, 2.5 μm, Waters) in gradient elution. The column temperature was 40 °C and the flow rate was 0.3 mL/min. The standard curve for IMB16-4 was the linear (R^2 > 0.992) over the concentration range of 4~2048 ng/mL. The quantitative ion pairs of IMB16-4 and internal standard quantitative were m/z = 500.0/195.7 and m/z = 168.0/126.1, respectively. The pharmacokinetic parameters were obtained using statistic software DAS2.0.

NAFLD model rats = system: NAFLD model rats; parameters: method as in PMID 23752471, PMID 30573812; conditions: NAFLD model rats ref 18, 19; cited from earlier work

O=C(Nc1cc(Cl)c(Cl)c(Cl)c1)c1ccccc1NS(=O)(=O)c1cccc([N+](=O)[O-])c1 [IMB16-4, N-(3,4,5-trichlorophenyl)-2(3-nitrobenzenesulfonamido) benzamide]
solubility [1]: 0.0432 ± 0.0091 µg/mL (≈ 0.0863 µM) | amount of dissolved IMB16-4 [2]: about 40% | protein levels of α-SMA, TGF-β1 and MMP2 (antifibrotic effect) ([3]; dissolved by DMSO): showed potential anti-liver fibrosis effects. However, the differences are not significant | protein levels of α-SMA, TGF-β1 and MMP2 (antifibrotic effect) ([3]; suspended in sterile water): poor inhibition effect | CLz/F [4]: 54.70 ± 23.57 | Tmax ([4]; Sprague-Dawley, rat, plasma): 3.43 ± 1.4 h | Cmax ([4]; Sprague-Dawley, rat, plasma, in 0.5% CMC-Na): 180 ± 40 ng/mL | AUC ([4]; Sprague-Dawley, rat, plasma, read-out: AUC0≈12 h): 1240 ± 310 ng·h/mL | MRT ([4]; Sprague-Dawley, rat, plasma, read-out: MRT0≈12 h): 5.18 ± 0.77 h

N-(3,4-dichlorophenyl)-2-(3-trifluoromethoxy) benzamide [IMB17-15]
hepatoprotective effects (NAFLD model rats): has hepatoprotective effects
